The conditions of data set [1]: 625 mg q6h for 7 days, healthy adult volunteers; cited from earlier work.
A short description of data set [2]: Simulation of upper and lower clinical bounds of exposure. Also on record: species or system human.
Data set [3] concerns Pseudomonas aeruginosa and Enterobacteriaceae. The conditions noted are these: HF model; cited from earlier work.
A short description of a further data set: Population PK analysis. Format: in vivo, human. Conditions: for V1, final model estimate (RSE%): apparent volume of the central compartment; for V2, final model estimate (RSE%): apparent volume of the peripheral compartment; for BSV in V1, final model CV% (shrink) / BSV in V2, final model CV% (shrink): between-subject variability; for Q, final model estimate (RSE%): intercompartmental clearance; for CL, final model estimate (RSE%): population PK, healthy volunteers and patients, i.v. infusion; for Covariate on CL: CrCL (power), final model estimate (RSE%): power relationship centered on the median; for Proportional Error, final model CV% (shrink): residual variability.

For data set [4] the following is noted: imipenem monotherapy, in vivo animal models; cited from earlier work.
The conditions of data set [5]: patients; cited from earlier work.

Bounds are passed on as bounds.

As for `O=C(NC1CCNCC1)[C@@H]1CC[C@@H]2CN1C(=O)N2OS(=O)(=O)O` [relebactam], the safety and tolerability entry in data set [1] is “safe and well tolerated”. This compound also had an AUC0-24 hours target in data set [2] of 76.9 µM·h. For the same compound, in data set [3], the “fAUC0-24 hours/MIC required to achieve 2-log kill” value is recorded as at least 7.5. In addition, in “Population PK analysis”, the “V1, final model estimate (RSE%)” value is reported as 11.08 (2.9) L; the “V2, final model estimate (RSE%)” value is given as 6.41 (3.8) L; the “BSV in V1, final model CV% (shrink)” value is reported as 59.5 (18.8) CV%; the “BSV in V2, final model CV% (shrink)” value is 41.1 (49.8) CV%. In addition, in the data set “Population PK analysis”, the “Q, final model estimate (RSE%)” value was 10.45 (6.8) L/hour; the “CL, final model estimate (RSE%)” value is reported as 7.02 (2.0) L/hour; the “Covariate on CL: CrCL (power), final model estimate (RSE%)” value is recorded as 0.75 (8.3); the “Proportional Error, final model CV% (shrink)” value was 15.3 (14.1) CV%. Further, in “Population PK analysis” (body weight), the “Covariate on V1: WT (power), final model estimate (RSE%)” value is listed as 0.70 (15.8). Besides, in “Population PK analysis” (bootstrap n = 1,000), the “BSV in V1, bootstrap CV%” value is on record as 59.4 CV%; the “BSV in V2, bootstrap CV%” value stood at 41.0 CV%; the “CL, bootstrap estimate (RSE%)” value is 7.02 (2.0) L/hour; the “Covariate on CL: CrCL (power), bootstrap estimate (RSE%)” value is reported as 0.75 (8.3). Also, in “Population PK analysis” (bootstrap n = 1,000), the “Covariate on V1: WT (power), bootstrap estimate (RSE%)” value was 0.72 (17.9); the “Proportional Error, bootstrap CV%” value is recorded as 15.3 CV%; the “Q, bootstrap estimate (RSE%)” value was 10.48 (7.0) L/hour; the “V1, bootstrap estimate (RSE%)” value was 11.06 (2.9) L. For the same compound, the “V2, bootstrap estimate (RSE%)” value in “Population PK analysis” (bootstrap n = 1,000) is reported as 6.43 (3.6) L.

For `C[C@@H](O)[C@H]1C(=O)N2C(C(=O)O)=C(SCCN=CN)C[C@H]12` [imipenem], in “Population PK analysis”, the “V1, final model estimate (RSE%)” value is given as 15.83 (3.2) L; the “V2, final model estimate (RSE%)” value is recorded as 5.84 (4.0) L; the “BSV in V1, final model CV% (shrink)” value was 74.4 (7.4) CV%; the “BSV in V2, final model CV% (shrink)” value is 35.0 (52.9) CV%. In addition, in “Population PK analysis”, the “Q, final model estimate (RSE%)” value is recorded as 11.09 (6.5) L/hour; the “CL, final model estimate (RSE%)” value is 12.53 (2.0) L/hour; the “Covariate on CL: CrCL (power), final model estimate (RSE%)” value was 0.46 (8.1); the “Proportional Error, final model CV% (shrink)” value is reported as 16.1 (19.0) CV%. Further, in the data set “Population PK analysis” (body weight), the “Covariate on CL: WT (power), final model estimate (RSE%)” value is reported as 0.33 (30.5) and the “Covariate on V1: WT (power), final model estimate (RSE%)” value is reported as 0.74 (19.1). Further, in the data set “Population PK analysis” (bootstrap n = 1,000), the “BSV in V1, bootstrap CV%” value is reported as 74.2 CV%; the “BSV in V2, bootstrap CV%” value amounted to 34.8 CV%; the “CL, bootstrap estimate (RSE%)” value is listed as 12.53 (2.0) L/hour; the “Covariate on CL: CrCL (power), bootstrap estimate (RSE%)” value is recorded as 0.46 (8.0). In the data set “Population PK analysis” (bootstrap n = 1,000), the “Covariate on CL: WT (power), bootstrap estimate (RSE%)” value is 0.34 (32.2); the “Covariate on V1: Healthy, bootstrap estimate (RSE%)” value was −0.28 (10.0); the “Covariate on V1: WT (power), bootstrap estimate (RSE%)” value was 0.76 (21.6); the “Proportional Error, bootstrap CV%” value came out at 16.1 CV%. In the data set “Population PK analysis” (bootstrap n = 1,000), the “Q, bootstrap estimate (RSE%)” value is recorded as 11.15 (6.7) L/hour; the “V1, bootstrap estimate (RSE%)” value is 15.76 (3.4) L; the “V2, bootstrap estimate (RSE%)” value is recorded as 5.86 (3.9) L. Also, the “Covariate on V1: Healthy, final model estimate (RSE%)” value in “Population PK analysis” (proportional change, healthy volunteers vs patients) is −0.29 (9.5). For the same compound, the “fT > MIC required to achieve 1-log kill to 2-log kill” value in data set [4] is on record as ~ 30%. Besides, the “concentration lower in peritoneal fluid than in plasma, on average” value in data set [5] is given as 25%.

The values are drawn from PMC6813166 (CPT: Pharmacometrics & Systems Pharmacology, 2019).
